From patent US6649193B1, “Prophylactic therapeutic and industrial antioxidant compositions enhanced with stabilized atomic hydrogen/free electrons and methods to prepare and use such compositions” (Henceforth Hibernia Inc., priority 1999, dated 2003) come the findings set out here.

The nature of the assay: Standardized in-vitro tests of free radical / reactive species scavenging. It counts as biochemical. To be noted: cage-like agent added to the solution before electrolysis. An excerpt: Electrochemical Method to Produce and Encage Atomic Hydrogen: Electrolysis is a very efficient method of producing atomic hydrogen free electrons. In the past, though, it was not possible to separate oxidizing products produced at the anode and reducing products produced at the cathode. Recently, Japanese scientists used a semipermeable membrane to separate the cathode and anode areas, while not perturbing the flow of electrons delivered to the media. Such devices are, for instance, described in Y. Shiramizu et al., J. Electrochem. Soc., Vol. 143, 1632 (1996), the content of which is incorporated by reference in its entirety. In short, such devices consist of a chamber (usually made of noncorrosive material such as plastic) which is divided in two compartments with a water-tight semipermeable Nafion membrane (Dupont corporation). In each compartment, there is an electrode connected to a DC current source. […] Several parameters can be measured to ensure the efficiency of electrolysis. […] The efficiency of reduction of vitamin B12 can be tested by measuring UV/VISIBLE spectra and recording the absorbance at 387 nm, which is proportional to the amount of reduced vitamin B12, see G. Chithambarathanu Pillai and E. S. Gould, Inorganic Chemistry, Vol. 25, 3353 (1986), the content of which is incorporated by reference in its entirety. […]

As for cyanocobalamin [vitamin B12], the “scavenging ability of the electrolyzed solution” value was “enhanced in a dose-dependent fashion”.
